From US20150018546A1, “HETEROCYCLIC COMPOUND HAVING ANTI-HIV ACTIVITY” (TOYAMA CHEMICAL CO., LTD., priority 2012, published 2015)
Like-named read-outs stand apart in the source and are kept apart here.

Test system: HIV-1 (JRCSF)
Experiment: Anti-HIV activity in MaRBLE cells infected with HIV-1 (JRCSF), luciferase readout
Assay type: cell-based
Conditions: Human immunodeficiency virus 1, 168 h, read-out: Anti-HIV activity IC50
Method in brief: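 HPB-M(a)-derived MaRBLE cells carrying HIV-1 LTR-luciferase and CCR5, infected with HIV-1 JRCSF, 1×10^5 cells/well in RPMI1640/10% FCS, cultured 7 days at 37 °C. Luciferase read; proliferation % relative to compound-free wells minus uninfected background; IC50 by linear regression on log concentration.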

[1] = MaRBLE cells (human T lymphocyte-derived HPB-M(a)) infected with HIV-1 (JRCSF), 7 days culture, rate of viral proliferation by luciferase activity

Row | IC50 [1] [µM] | Structure (SMILES) | IC50 [µM]
1 |  | CNc1cccc(CNc2cc(=O)n(O)c3ncnc(C)c23)c1 [Example 84, 8-hydroxy-4-methyl-5-((3-(methylamino)benzyl)amino)pyrido[2,3-d]pyrimidin-7(8H)-one] | 0.076
2 | 0.04 | Cc1ccccc1CNc1cc(=O)n(O)c2ncnc(C)c12 [Example 46, 8-hydroxy-4-methyl-5-((2-methylbenzyl)amino)pyrido[2,3-d]pyrimidin-7(8H)-one] | 
3 | 0.13 | Cc1ncnc2c1c(NCc1ccco1)cc(=O)n2O [Example 153, 5-((2-furylmethyl)amino)-8-hydroxy-4-methylpyrido[2,3-d]pyrimidin-7(8H)-one] | 
4 | 0.073 | Cc1ncnc2c1c(NCc1ccc(O)c(O)c1)cc(=O)n2O [Example 113, 5-((3,4-dihydroxybenzyl)amino)-8-hydroxy-4-methylpyrido[2,3-d]pyrimidin-7(8H)-one] | 
5 | 0.17 | Cc1ncnc2c1c(NCc1cccc(OC(F)(F)F)c1)cc(=O)n2O [Example 45, 8-hydroxy-4-methyl-5-((3-(trifluoromethoxy)benzyl)amino)pyrido[2,3-d]pyrimidin-7(8H)-one] | 
6 | 0.23 | COc1cccc(CNc2cc(=O)n(O)c3ncnc(C)c23)c1 [Example 31, 8-hydroxy-5-((3-methoxybenzyl)amino)-4-methylpyrido[2,3-d]pyrimidin-7(8H)-one] | 
